For experiment [1], the system named is DHIV-infected NP cells. The experiment can be described thus: HIV-1 reactivation by αCD3/CD28 in latently infected NP cells in the presence of signaling inhibitors (intracellular p24 Gag, flow cytometry). The format is cell-based, human. The note with it: αCD3/CD28 restimulation 3 days; for inhibition of reactivation: inhibitor preincubated 2 hr. On the procedure: (§1) To assess intracellular p24-gag expression, 5×10^5 cells were fixed and permeabilized with Citofix/Cytoperm during 30 min at 4° C. (BD Biosciences, San Diego, Calif.). Cells were washed with Perm/Wash Buffer (BD Biosciences) and stained with 1:40 dilution of anti-p24 antibody (AG3.0) in 100 μl of Perm/Wash Buffer during 30 min at 4° C. Cells were washed with Perm/Wash Buffer and incubated with 1:100 Alexa Fluor 488 goat anti-mouse IgG (H+L) in 100 μl of Perm/Wash Buffer during 30 min at 4° C. Cells were washed with Perm/Wash Buffer and samples were analyzed by flow cytometry. Forward versus side scatter plots were used to define the live population. In all the experiments, HIV p24-gag staining regions were set with uninfected cells treated in parallel.
2.5×10^5 cells were reactivated with beads coated with anti-CD3 and anti-CD28 during 72 hours in the presence of IL-2 (1 bead per cell).
For inhibition studies, cells were preincubated with the indicated inhibitor for 2 hr before stimulation (See Supplementary Methods on line for the concentration of each inhibitor or activator).
To begin to dissect potential signaling pathways leading to virus reactivation, a panel of known signaling inhibitors was tested. […] As a control, and to confirm expectations that the observed latent infections represent post-integration events, the integrase inhibitor, 118-D-24, was tested (FIG. 3A).
(§2) The concentration of each inhibitor or activator was as follows: 5 μM H-89, 50 μM PD98059, 250 nM Wortmannin, 15 nM bisindolylmaleimide II (BIM), 5 μM Rottlerin, 10 μM PP2, 50 μg/ml I kappa B Kinase Inhibitor Peptide, Cell-Permeable (IKK inh.) and 50 μM Forskolin (Calbiochem, San Diego, Calif.); 50 μM SB202190 and 125 ng/ml Leflunomide (Alexis Biochemicals, San Diego, Calif.); 10 nM Gö6976 and 1 μM Prostratin (LC Laboratories, Woburn, Mass.); 25 ng/ml TNF-α (Prepotech Inc.); 10 ng/ml phorbol 12-myristate 13-acetate, 1 μM Ionomycin, 5 μg/ml L-PHA and 1 mM Valproic Acid (Sigma, Saint Louis, Mo.); 500 ng/ml Cyclosporin A (Fluka/Sigma); 25 μM SP600125 (A.G. Scientific Int., San Diego, Calif.); and 20 μM Integrase Inhibitor (118-D-24).
Background: Flow cytometry measures light scatter and fluorescence of single cells or particles in a stream.

Experiment [2] deals with Latently infected cells (DHIV-infected NP cells). The experiment can be described thus: HIV-1 reactivation in latently infected NP cells by signaling agonists (intracellular p24 Gag, flow cytometry). The note with it: agonist 3 days at the concentration of b193; for ability of agonist to reactivate viral gene expression (in words): p24 Gag+ cells. It counts as cell-based, human. As to the method:
as §1
To complement the inhibitor studies, additional experimentation was conducted using agonists for the above signaling pathways. Latently infected cells were either left untreated or incubated with agonist. As a positive control, cells were treated with αCD3/CD28. The ability of the agonist to promote viral reactivation was then evaluated by detection of intracellular p24^Gag as shown above (FIG. 4). Phytohemagglutinin (PHA), a lectin that binds non-specifically to carbohydrate moieties on surface glycoproteins and acts as a potent polyclonal mitogen for T cells, was the first to be tested.
as §2

Experiment [3] concerns Jurkat latently infected cells. The note with it: Jurkat cell line; cited from earlier work.
The test system of experiment [4] is Latently infected cells (DHIV-infected NP cells). Kind of experiment: PHA-mediated HIV-1 reactivation in the presence of inhibitors (intracellular p24 Gag). It counts as cell-based, human.
Procedure: To assess intracellular p24-gag expression, 5×10^5 cells were fixed and permeabilized with Citofix/Cytoperm during 30 min at 4° C. […] Cells were washed with Perm/Wash Buffer (BD Biosciences) and stained with 1:40 dilution of anti-p24 antibody (AG3.0) in 100 μl of Perm/Wash Buffer during 30 min at 4° C. Cells were washed with Perm/Wash Buffer and incubated with 1:100 Alexa Fluor 488 goat anti-mouse IgG (H+L) in 100 μl of Perm/Wash Buffer during 30 min at 4° C. Cells were washed with Perm/Wash Buffer and samples were analyzed by flow cytometry. Forward versus side scatter plots were used to define the live population. In all the experiments, HIV p24-gag staining regions were set with uninfected cells treated in parallel.
For inhibition studies, cells were preincubated with the indicated inhibitor for 2 hr before stimulation (See Supplementary Methods on line for the concentration of each inhibitor or activator). […]
Experiment [5] has as its system latently infected cells. Kind of experiment: IL-7+IL-2 induced viral reactivation in the presence of inhibitors. Conditions: IL-7+IL-2 stimulation. The format is cell-based, human. From the text:
Understanding the intracellular mediators of IL-7/IL-2 stimulation provides additional targets toward latent virus purging. Some of these mediators can be enzymes, such as kinases and phosphatases, which may be ameneable to agonistic or antagonistic drugs. It is also important to know the IL-7/IL-2 signaling because, as noted herein, this pathway is the basis for homeostatic proliferation of memory cells, where an important proportion of proliferating cells are not inducing viral reactivation.
IL-7 stimulation induces activation of p38MAPK (a noncanonical IL-7 dependent pathway). […] Therefore, p38α is also a mediator for reactivation via IL-7.

For experiment [6], the system named is p38α MAPK. The note with it: cited from earlier work.
The subject of experiment [7] is tumor cell lines harboring integrated, latent HIV-1. The note with it: through the activation of NFκB; cited from earlier work.
Where [8] appears, read: inhibitor at the concentration of b193.

“Also recorded” adds a separate entry of the source.

`CN1CCCC1CCn1cc(C2=C(c3c[nH]c4ccccc34)C(=O)NC2=O)c2ccccc21` (stereo not shown) [BIM, bisindolylmaleimide II]: the “effect of inhibitor on viral reactivation (in words)” value in experiment [1] (setting [8]) is recorded as “None of these three compounds had a negative effect on viral reactivation”.
`Cn1c2ccccc2c2c3c(c4c5ccccc5n(CCC#N)c4c21)CNC3=O` [Gö6976]: in experiment [1] (setting [8]), the “effect of inhibitor on viral reactivation (in words)” value is recorded as “None of these three compounds had a negative effect on viral reactivation”.
Turning to `O=S(=O)(NCCNC/C=C/c1ccc(Br)cc1)c1cccc2cnccc12` [H-89], in experiment [1] (setting [8]), the “effect of inhibitor on viral reactivation (in words)” value is listed as “did not have any effect on viral reactivation”.
On to `Cc1oncc1C(=O)Nc1ccc(C(F)(F)F)cc1` [Leflunomide], for which the “effect of inhibitor on viral reactivation (in words)” value was “failed to block viral reactivation” in experiment [1] (setting [8]) and “does not block reactivation in memory cells” in experiment [1] (inhibitor at the concentration of b193, listed as lefluonomide).
Turning to `COc1cccc(-c2cc(=O)c3ccccc3o2)c1N` [PD98059], the “effect of inhibitor on viral reactivation (in words)” value in experiment [1] (setting [8]) is “Neither SP600125 nor PD98059 inhibited viral reactivation”.
For `CCCCCCCCCCCCCC(=O)O[C@@H]1[C@@H](C)[C@@]2(O)[C@@H](C=C(CO)C[C@]3(O)C(=O)C(C)=C[C@@H]23)[C@@H]2C(C)(C)[C@]12OC(C)=O` [PMA, phorbol 12-myristate 13-acetate], the “ability of agonist to reactivate viral gene expression (in words)” value (“ability of agonist” below) in experiment [2] is reported as “Neither compound was able to reactivate viral gene expression; also recorded: failed to induce any degree of reactivation; also recorded: failed to induce any detectable reactivation”. Further, the “reactivation of latent viruses (in words)” value in experiment [3] is listed as “Reactivation of these latent viruses was accomplished”.
As for `CC(C)(C)n1nc(-c2ccc(Cl)cc2)c2c(N)ncnc21` [PP2], the inhibition of reactivation result in experiment [1] is on record as “about 96%”. In experiment [4] (PHA stimulation co-incubated with inhibitor, relative to αCD3/CD28), the “viral reactivation with PHA in the presence of inhibitor (reactivation efficiency)” value amounted to 3%. Further, in experiment [4] (PHA stimulation plus inhibitor), the “effect of inhibitor on reactivation by PHA (in words)” value was “completely blocked reactivation by PHA”.
Consider `CC(=O)c1c(O)c(C)c(O)c(Cc2c(O)c3c(c(C(=O)/C=C/c4ccccc4)c2O)OC(C)(C)C=C3)c1O` [Rottlerin], for which the “effect of inhibitor on viral reactivation (in words)” value in experiment [1] (setting [8]) is listed as “None of these three compounds had a negative effect on viral reactivation”.
Take `Oc1ccc(-c2nc(-c3ccncc3)c(-c3ccc(F)cc3)[nH]2)cc1` [SB202190]: in experiment [1], the inhibition of reactivation was 66%.
In the case of `C[S+]([O-])c1ccc(-c2nc(-c3ccncc3)c(-c3ccc(F)cc3)[nH]2)cc1` (stereo not shown) [SB203580], the inhibition of reactivation result in experiment [1] is listed as “about 66%”. Moreover, the “effect of inhibitor on reactivation by IL-7+IL-2 (in words)” value in experiment [5] is listed as “can block reactivation”. For the same compound, the “effect on IL-7 induced proliferative response (in words)” value in experiment [6] was “abrogated the proliferative response”.
As to `CCCC(CCC)C(=O)O` [VA, valproic acid], the “ability of agonist” value is listed as “failed to reactivate viral gene expression” in experiment [2] and “incapable of inducing viral reactivation” in experiment [2] (listed as Valproic acid).
As for `C[C@H](CCC(=O)O)C[C@H](C)C[C@H](C)C(=O)/C=C(\O)[C@H](C)C[C@H](C)C/C=C/[C@@H](C)[C@@H](O)[C@@H](C)[C@@H](O)C[C@@H]1CC[C@@](C)([C@H]2CC[C@@](C)([C@@H](C)O)O2)O1` [lonomycin, Ionomycin], the “ability of agonist” value in experiment [2] is listed as “had no effect on viral reactivation; also recorded: produced no detectable reactivation”.
On to `CC(=O)O[C@@]12C[C@@H](C)[C@@]3(O)[C@@H](C=C(CO)C[C@]4(O)C(=O)C(C)=C[C@@H]34)[C@@H]1C2(C)C` [prostratin], for which the “ability of agonist” value in experiment [2] is “Neither compound was able to reactivate viral gene expression; also recorded: failed to induce any degree of reactivation”.
For Phytohemagglutinin [PHA], in experiment [2], the “ability of agonist” value is listed as “induced reactivation almost as efficiently as αCD3/CD28 treatment”. Besides, the reactivation efficiency in experiment [2] (relative to αCD3/CD28, formula) was 79%.
Take TNF-α: the “ability of agonist” value in experiment [2] is given as “failed to induce any degree of viral gene expression; also recorded: failed to induce any degree of reactivation; also recorded: failed to induce any detectable reactivation”. In addition, the “reactivation of latent viruses (in words)” value in experiment [3] is “Reactivation of these latent viruses was accomplished”. In addition, the “induction of viral gene expression (in words)” value in experiment [7] is listed as “can induce viral gene expression”.
